# Values joined by “and” are separate entries in the source; they are usually repeats but may differ in a detail not shown here. Equal values may be shown once. Where a name gives a salt, the structure may show the parent alone. Read-outs that look alike come from different tables or passages of the source.
# Key:
# cdk4/cyclin D1 = molecular target: T1, cdk4/cyclin D1 (Homo sapiens, UniProt P11802); experiment: Cyclin-dependent Kinase 4 Assay (cdk4/cyclin D1, GST-Rb substrate); format: biochemical; details: cdk4/cyclin D1 insect cell lysate, 10 μM ATP, 30 min at 37° C., several values = separate determinations, read-out: CDK4 Inhibition IC50
# T1 construct: made in house; host or cells: Sf9 insect cells (Bac-to-Bac baculovirus, pFastBac)
# Procedure: The IC50 values for cdk4 inhibition were by the following method:
# The transformed bacteria were grown overnight to saturation, then diluted in YT broth and incubated at 37° C. for 2 h. The protein was induced by incubation with 0.1 mM isopropylthioglycoside for 3 h. Following sedimentation by centrifugation, the cells were lysed by sonication in STE buffer ([…] NaCl, 10 mM Tris, pH 8.0, 1 mM EDTA) containing 10% sarkosyl. Particulate matter was removed by centrifugation and the lysate was incubated with glutathione-Sepharose at 4° C. The beads were washed with kinase buffer and then quantitation of Coomassie blue-stained proteins separated by SDS-PAGE was performed using a protein standard of known concentration.
# The cDNA for human cyclin D1 was cloned by RT PCR using […] from MCF-7 cells. […] Bacmid DNA was used to transfect Sf9 insect cells to produce recombinant virus. Following plaque purification of the virus, the viral preparations were amplified until high titer stocks were acheived.
# Lysates were prepared by lysis of Sf9 cells coinfected with cdk4 and cyclin D1 in 50 mM HEPES, pH 7.5, 10 mM MgCl2, 1 mM DTT, 0.1 mM phenylmethylsulfonyl fluoride, 5 μg/ml aprotinin, and 5 μg/ml leupeptin using a PARR bomb under 500 p.s.i nitrogen pressure for 5 min at 4° C. Insoluble material was sedimented at 10,000×g for 20 min at 4° C. Glycerol was added to the supernatant to 10% and stored at −80° C. in aliquots.
# Pre-wet Millipore Multiscreen 96-well filter plates (0.65 μm Durapore filters) with 200 μl kinase buffer (50 mM HEPES, pH 7.5, 10 mM MgCl2, 1 mM EGTA). GST-Rb (0.5 μg) bound to glutathione-Sepharose beads is added in 50 μl per well and the solution removed by application of vacuum. […] Add 0.1 μg cdk4/cyclin D1 (insect cell lysate) to initiate assay. Incubate 30 min at 37° C. Terminate reaction by filtration on Millipore Vacuum Manifold. Wash four times with TNEN (20 mM Tris, pH 8.0, 100 mM Na Cl, 1 mM EDTA, 0.5% nonidet P-40). After drying the plates at room temperature, the filter plates were placed in adapter plates (Packard) and 40 μl of Microscint-O® (Packard) was added to each well. Top Seal A film was used to cover the plates before counting in a Top Count Scintillation Counter.
# MDA-MB-231 = experiment: In vitro tumor cell proliferation, MDA-MB-231; format: cell-based, human; details: sulforhodamine B or CyQUANT assay, many values given with an undefined *, read-out: In vitro Tumor Cell Proliferation (IC50, μM) Breast MDA-MB-231
# Procedure: (§1) The proliferation of tumor cells was measured using a sulforhodamine B assay as described in Skehan, P., et al., J. Natl. Cancer Inst. […] Tumor cells were harvested with trypsin-EDTA, cells that excluded trypan blue were counted, added to 96-well plates and incubated overnight at 37° C. Drug was added to the wells following dilution in culture medium. Three days later, the medium was removed and replenished with medium containing fresh drug and incubated an additional 4 days. The cells were then fixed with 0.1 ml 10% trichloroacetic acid for 60 min at 4° C. The plates were rinsed five times with tap water, air-dried and stained for 30 min with 0.4% sulforhodamine B in 1% acetic acid and air-dried.
# (§2) Alternatively, the CyQUANT cell proliferation assay was used to quantitate cell proliferation.
# (§3) Alternatively, the CyQUANT cell proliferation assay was used to quantify tumor cell proliferation. Tumor cells were harvested with trypsin-EDTA, cells that excluded trypan blue were counted, added to 96-well plates and incubated overnight at 37° C. Drug was added to the wells following dilution in culture medium. Three days later the medium was removed and the plates frozen at −80° C. for at least 30 minutes.
# MDA-MB-23 1 is a human breast adenocarcinoma, hormone-independent (HTB 26);
# MDA-MB-435 = experiment: In vitro tumor cell proliferation, MDA-MB-435; format: cell-based; details: values given with an undefined *, read-out: In vitro Tumor Cell Proliferation (IC50, μM) Breast MDA-MB-435
# Procedure: as §1, §2, §3
# HT-29 = experiment: In vitro tumor cell proliferation, HT-29; format: cell-based, human; details: many values given with an undefined *, read-out: In vitro Tumor Cell Proliferation (IC50, μM) Colon HT-29
# Procedure: as §1, §2, §3
# HT-29 is a human colon adenocarcinoma, moderately well-differentiated grade II (HTB 38);
# Colo-205 = experiment: In vitro tumor cell proliferation, Colo-205; format: cell-based; details: values given with an undefined *, read-out: In vitro Tumor Cell Proliferation (IC50, μM) Colon Colo-205
# Procedure: as §1, §2, §3
# A549 = experiment: In vitro tumor cell proliferation, A549; format: cell-based, human; details: many values given with an undefined *, read-out: In vitro Tumor Cell Proliferation (IC50, μM) Lung A549
# Procedure: as §1, §2, §3
# DMS-114 = experiment: In vitro tumor cell proliferation, DMS-114; format: cell-based, human; details: many values given with an undefined *, read-out: In vitro Tumor Cell Proliferation (IC50, μM) Lung DMS-114
# Procedure: DMS-1 14: human small cell lung carcinoma;
# as §1, §2, §3
# PC-3 = experiment: In vitro tumor cell proliferation, PC-3; format: cell-based, human; details: many values given with an undefined *, read-out: In vitro Tumor Cell Proliferation (IC50, μM) Prostate PC-3
# Procedure: as §1, §2, §3
# DU145 = experiment: In vitro tumor cell proliferation, DU145; format: cell-based, human; details: many values given with an undefined *, read-out: In vitro Tumor Cell Proliferation (IC50, μM) Prostate DU145
# Procedure: as §1, §2, §3
# cdk2/cyclin E = molecular target: T2, cdk2/cyclin E (Homo sapiens, UniProt P24941); experiment: Cyclin-Dependent Kinase 2 Assay (cdk2/cyclin E, GST-Rb substrate); format: biochemical; details: recombinant cdk2/cyclin E, 10 μM ATP, 30 min at 30° C., several values in a cell = separate determinations, read-out: CDK-2 Inhibition IC50
# T2 construct: made in house; host or cells: insect cells (baculovirus co-infection)
# Procedure: Substrate: GST-Rb as described above for cdk4/cyclin D1
# Assay conditions for cdk2/cyclin E were identical to those for cdk4/cyclin D1 including the substrate. The concentration of recombinant cdk2/cyclin E in the assay was 0.1 μg per 100 μl assay. Incubation was for 30 min at 30° C.
# [1] = Homo sapiens, MDA-MB-231, MDA-MB-231
# T1 sequence (P11802 whole entry): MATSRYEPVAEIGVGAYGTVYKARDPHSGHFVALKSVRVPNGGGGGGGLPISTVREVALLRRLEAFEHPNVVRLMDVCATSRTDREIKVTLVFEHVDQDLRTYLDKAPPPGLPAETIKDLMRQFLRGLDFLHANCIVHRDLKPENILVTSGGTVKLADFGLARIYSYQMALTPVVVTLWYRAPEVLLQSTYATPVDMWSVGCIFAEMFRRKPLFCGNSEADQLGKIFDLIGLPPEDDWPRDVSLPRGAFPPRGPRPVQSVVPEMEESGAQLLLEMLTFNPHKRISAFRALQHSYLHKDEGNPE
# T1 sequence (P24385 whole entry partner): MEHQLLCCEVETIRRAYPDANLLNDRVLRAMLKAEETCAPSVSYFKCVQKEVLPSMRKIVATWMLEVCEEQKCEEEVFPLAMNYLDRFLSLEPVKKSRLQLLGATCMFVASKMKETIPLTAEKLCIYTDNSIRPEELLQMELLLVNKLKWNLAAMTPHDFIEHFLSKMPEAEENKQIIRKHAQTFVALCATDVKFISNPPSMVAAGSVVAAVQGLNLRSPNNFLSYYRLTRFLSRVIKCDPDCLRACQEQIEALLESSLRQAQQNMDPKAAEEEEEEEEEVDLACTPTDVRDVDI
Molecule,"IC50 (MDA-MB-231; MDA-MB-231, trihydrochloride)","IC50 (MDA-MB-435; MDA-MB-435, trihydrochloride)","IC50 (HT-29; HT-29, trihydrochloride)","IC50 (Colo-205; Colo-205, trihydrochloride)","IC50 (A549; A549, trihydrochloride)","IC50 (DMS-114; DMS-114, trihydrochloride)","IC50 (PC-3; PC-3, trihydrochloride)","IC50 (DU145; DU145, trihydrochloride)",IC50 (cdk2/cyclin E),IC50 (cdk4/cyclin D1),IC50 (MDA-MB-231; MDA-MB-231),IC50 (MDA-MB-435; MDA-MB-435),IC50 (Colo-205; Colo-205),IC50 (DU145; DU145),also measured
"2-[Trans-(4-aminocyclohexyl)amino]-6-[4-[1-(2,5-difluorobenzyl)]piperidinylamino-9-cyclopentylpurine trihydrochloride [Example 147-f]",0.41 µM and 0.38 µM,0.5 µM and 0.49 µM,0.4 µM and 0.34 µM,0.31 µM and 0.25 µM,0.3 µM,0.67 µM and 0.36 µM,0.36 µM and 0.45 µM,0.31 µM and 0.29 µM,–,–,–,–,–,–,IC50 (cdk4/cyclin D1; trihydrochloride): 1100 nM and 2100 nM
"NC1CCC(Nc2nc(NC(c3ccc(Cl)cc3)C3CC3)c3ncn(C4CCCC4)c3n2)CC1 (racemic) [Example 24, (+/−)-2-[Trans-(4-aminocyclohexyl)amino]-6-[(α-cyclopropyl-4-chlorobenzyl)amino]-9-cyclopentylpurine dihydrochloride]",–,–,–,–,–,–,–,–,27100 nM,4600 nM and 10000 nM,–,–,–,–,–
"COc1cccc(OC)c1CNc1nc(N[C@H]2CC[C@H](N)CC2)nc2c1ncn2C1CCCC1 [Example 4, 2-[Trans-(4-aminocyclohexyl)amino]-6-[(2,6-dimethoxybenzyl)amino]-1-9-cyclopentylpurine dihydrochloride]",–,–,–,–,–,–,–,–,19400 nM,46000 nM and > 100000 nM,–,–,–,–,–
"N[C@H]1CC[C@H](Nc2nc(NNc3c(Cl)cccc3Cl)c3ncn(C4CCCC4)c3n2)CC1 [Example 20, 2-[Trans-(4-aminocyclohexyl)amino]-6-[2,6-dichlorophenylhydrazino]-9-cyclopentylpurine dihydrochloride]",–,–,–,–,–,–,–,–,497 nM,–,–,–,–,–,"IC50 (MDA-MB-231; [1]): 4.8 µM; IC50 (MDA-MB-435; Homo sapiens, MDA-MB-435, MDA-MB-435): 11 µM; IC50 (HT-29; Homo sapiens, HT-29, HT-29): 7.6 µM; IC50 (A549; A549, dihydrochloride): 4.8 µM; IC50 (A549; Homo sapiens, A549, A549): 5.6 µM; IC50 (DMS-114; Homo sapiens, DMS-114, DMS-114): 7.5 µM; IC50 (PC-3; Homo sapiens, PC-3, PC-3): 7.9 µM; IC50 (DU145; Homo sapiens, DU-145, DU145): 6.5 µM"
"COc1ccc(CN2CCC(Nc3nc(N[C@H]4CC[C@H](N)CC4)nc4c3ncn4C3CCCC3)CC2)cc1 [Example 39, 2-[Trans-(4-aminocyclohexyl)amino]-6-[4-(1-(4-methoxybenzyl))piperidinylamino]-9-cyclopentylpurine]",–,–,–,–,–,–,–,–,–,–,0.18 µM,0.23 µM and 0.35 µM,0.28 µM and 0.17 µM,0.28 µM and 0.27 µM,IC50 (HT-29; HT-29): 0.32 µM and 0.22 µM; IC50 (A549; A549): 0.17 µM; IC50 (DMS-114; DMS-114): 0.32 µM and 0.22 µM; IC50 (PC-3; PC-3): 0.28 µM and 0.36 µM
"COc1cccc(CN2CCC(Nc3nc(N[C@H]4CC[C@H](N)CC4)nc4c3ncn4C3CCCC3)CC2)c1 [Example 41, 2-[Trans-(4-aminocyclohexyl)amino]-6-[4-(1-(3-methoxybenzyl))piperidinylamino]-9-cyclopentylpurine]",–,–,–,–,–,–,–,–,–,750 nM and 1400 nM,0.29 µM and 0.32 µM,0.35 µM and 0.36 µM,0.25 µM and 0.21 µM,0.29 µM and 0.23 µM,IC50 (HT-29; HT-29): 0.32 µM; IC50 (A549; A549): 0.19 µM; IC50 (DMS-114; DMS-114): 0.38 µM and 0.29 µM; IC50 (PC-3; PC-3): 0.27 µM and 0.42 µM
COc1cc(CNc2nc(NC3CCC(N)CC3)nc3c2ncn3C2CCCC2)cc(OC)c1OC (stereo not shown) [Example 147-ae],–,–,–,–,–,–,–,–,140 nM,–,6.6 µM,11 µM,8.6 µM,6.7 µM,"IC50 (MDA-MB-231; [1]): 6.5 µM; IC50 (HT-29; Homo sapiens, HT-29, HT-29): 10 µM; IC50 (Colo-205; Homo sapiens, COLO 205, Colo-205): 11 µM; IC50 (A549; Homo sapiens, A549, A549): 11 µM; IC50 (DMS-114; Homo sapiens, DMS-114, DMS-114): 8.7 µM; IC50 (DU145; Homo sapiens, DU-145, DU145): 12 µM"
"Cc1cccc(CN2CCC(Nc3nc(N[C@H]4CC[C@H](N)CC4)nc4c3ncn4C3CCCC3)CC2)c1 [Example 147-i, 2-[Trans-(4-aminocyclohexyl)amino]-6-[4-[1-(3-methylbenzyl)]piperidinylamino]-9-cyclopentylpurine trihydrochloride]",0.3 µM and 0.34 µM,0.3 µM and 0.45 µM,0.33 µM,0.24 µM and 0.27 µM,0.17 µM and 0.18 µM,0.39 µM and 0.26 µM,0.23 µM and 0.41 µM,0.23 µM,–,–,–,–,–,–,–
"COc1ccccc1CN1CCC(Nc2nc(N[C@H]3CC[C@H](N)CC3)nc3c2ncn3C2CCCC2)CC1 [Example 147-q, 2-[Trans-(4-aminocyclohexyl)amino]-6-[4-1-(2-methoxybenzyl)]piperidinylamino-9-cyclopentylpurine trihydrochloride]",0.19 µM and 0.25 µM,0.36 µM and 0.33 µM,0.32 µM and 0.38 µM,0.17 µM and 0.19 µM,0.18 µM and 0.19 µM,0.4 µM and 0.21 µM,0.33 µM and 0.4 µM,0.29 µM and 0.32 µM,–,–,–,–,–,–,IC50 (cdk4/cyclin D1; trihydrochloride): 690 nM and 1300 nM

# From patent publication US6479487B1, “6, 9-disubstituted 2-[trans-(4-aminocyclohexyl)amino] purines” (Aventis Pharmaceuticals Inc., priority 1998, dated 2002)
